# Read-outs that look alike come from different tables or passages of the source.
# Legend:
# [1] = system: Amaranthus rudis (AMATA), tall water hemp; assay: Postemergence herbicide evaluation, growth of Amaranthus rudis (AMATA); format: in vivo; conditions: Amaranthus tuberculatus, post-emergence, read-out: Ave. AMATA, percent reduction in plant size relative to the untreated control; for pest or weed control at 280 g/ha: 280 g ae/ha; for pest or weed control at 560 g/ha: 560 g ae/ha
# [2] = system: weeds ABUTH, AMATA, AMBEL, CHEAL, ERICA; assay: Postemergence herbicide evaluation, overall average % weed control (ABUTH, AMATA, AMBEL, CHEAL, ERICA); format: in vivo; conditions: post-emergence, read-out: Overall Ave % Weed Control; for pest or weed control at 280 g/ha: 280 g ae/ha; for pest or weed control at 560 g/ha: 560 g ae/ha
# [3] = Volatility of compounds measured by thermogravimetric analysis (TGA); format: physicochemical
# [4] = system: Chenopodium album (CHEAL), common lambsquarters; assay: Postemergence herbicide evaluation, growth of Chenopodium album (CHEAL); format: in vivo; conditions: Chenopodium album, post-emergence, read-out: Ave. CHEAL, percent reduction in plant size relative to the untreated control; for pest or weed control at 280 g/ha: 280 g ae/ha; for pest or weed control at 560 g/ha: 560 g ae/ha
# [5] = system: glyphosate resistant Conyza canadensis (L.) (ERICA), horseweed; assay: Postemergence herbicide evaluation, growth of Conyza canadensis (ERICA); format: in vivo; conditions: Erigeron canadensis, post-emergence, read-out: Ave. ERICA, percent reduction in plant size relative to the untreated control; for pest or weed control at 280 g/ha: 280 g ae/ha; for pest or weed control at 560 g/ha: 560 g ae/ha
# [6] = system: Abutilon theophrasti (ABUTH), velvetleaf; assay: Postemergence herbicide evaluation, growth of Abutilon theophrasti (ABUTH); format: in vivo; conditions: Abutilon theophrasti, post-emergence, read-out: AVE. ABUTH, percent reduction in plant size relative to the untreated control; for pest or weed control at 280 g/ha: 280 g ae/ha; for pest or weed control at 560 g/ha: 560 g ae/ha
# [7] = system: Ambrosia artemisiifolia (AMBEL), common ragweed; assay: Postemergence herbicide evaluation, growth of Ambrosia artemisiifolia (AMBEL); format: in vivo; conditions: Ambrosia artemisiifolia, post-emergence, read-out: AVE. AMBEL, percent reduction in plant size relative to the untreated control; for pest or weed control at 280 g/ha: 280 g ae/ha; for pest or weed control at 560 g/ha: 560 g ae/ha
# [8] = value marked *: decomposition of the material was observed
SMILES,"pest or weed control at 280 g/ha ([1]; 168 h, 7 DAA) [%]","pest or weed control at 560 g/ha ([1]; 168 h, 7 DAA) [%]","pest or weed control at 280 g/ha ([1]; 336 h, 14 DAA) [%]","pest or weed control at 560 g/ha ([1]; 336 h, 14 DAA) [%]","pest or weed control at 280 g/ha ([1]; 504 h, 21 DAA) [%]","pest or weed control at 560 g/ha ([1]; 504 h, 21 DAA) [%]","pest or weed control at 280 g/ha ([2]; 168 h, 7 DAA) [%]","pest or weed control at 560 g/ha ([2]; 168 h, 7 DAA) [%]","pest or weed control at 280 g/ha ([2]; 336 h, 14 DAA) [%]","pest or weed control at 560 g/ha ([2]; 336 h, 14 DAA) [%]","pest or weed control at 280 g/ha ([2]; 504 h, 21 DAA) [%]","pest or weed control at 560 g/ha ([2]; 504 h, 21 DAA) [%]","pest or weed control at 280 g/ha ([4]; 168 h, 7 DAA) [%]","pest or weed control at 560 g/ha ([4]; 168 h, 7 DAA) [%]","pest or weed control at 280 g/ha ([4]; 336 h, 14 DAA) [%]","pest or weed control at 560 g/ha ([4]; 336 h, 14 DAA) [%]","pest or weed control at 280 g/ha ([4]; 504 h, 21 DAA) [%]","pest or weed control at 560 g/ha ([4]; 504 h, 21 DAA) [%]","pest or weed control at 280 g/ha ([5]; 168 h, 7 DAA) [%]","pest or weed control at 560 g/ha ([5]; 168 h, 7 DAA) [%]",other results
C/C(=N\OC(=O)COc1ccc(Cl)cc1Cl)c1ccccc1Cl [Compound A24],82.5,72.5,92.5,90,77.5,72.5,74,71.5,87,83.8,89.6,89.8,75,77.5,91.5,95,98.5,94.5,80,75,"TGA Data (rate of weight loss, volatility) [3]: 0.03549 µg/min; pest or weed control at 280 g/ha ([5]; 336 h, 14 DAA): 98.5%; pest or weed control at 560 g/ha ([5]; 336 h, 14 DAA): 91.5%; pest or weed control at 280 g/ha ([5]; 504 h, 21 DAA): 94.5%; pest or weed control at 560 g/ha ([5]; 504 h, 21 DAA): 97%; pest or weed control at 280 g/ha ([6]; 168 h, 7 DAA): 62.5%; pest or weed control at 560 g/ha ([6]; 168 h, 7 DAA): 57.5%; pest or weed control at 280 g/ha ([6]; 336 h, 14 DAA): 77.5%; pest or weed control at 560 g/ha ([6]; 336 h, 14 DAA): 67.5%; pest or weed control at 280 g/ha ([6]; 504 h, 21 DAA): 80%; pest or weed control at 560 g/ha ([6]; 504 h, 21 DAA): 85%; pest or weed control at 280 g/ha ([7]; 168 h, 7 DAA): 70%; pest or weed control at 560 g/ha ([7]; 168 h, 7 DAA): 75%; pest or weed control at 280 g/ha ([7]; 336 h, 14 DAA): 75%; pest or weed control at 560 g/ha ([7]; 336 h, 14 DAA): 75%; pest or weed control at 280 g/ha ([7]; 504 h, 21 DAA): 97.5%; pest or weed control at 560 g/ha ([7]; 504 h, 21 DAA): 100%"
O=C(COc1ccc(Cl)cc1Cl)O/N=C1\CCCc2ccccc21 [Compound A25],65,57.5,80,82.5,50,64,59,62.5,62.7,69.5,59.5,70.1,72.5,72.5,65,92.5,75,75,60,72.5,"TGA Data (rate of weight loss, volatility) [3]: 0.8976 µg/min; pest or weed control at 280 g/ha ([5]; 336 h, 14 DAA): 83.5%; pest or weed control at 560 g/ha ([5]; 336 h, 14 DAA): 77.5%; pest or weed control at 280 g/ha ([5]; 504 h, 21 DAA): 67.5%; pest or weed control at 560 g/ha ([5]; 504 h, 21 DAA): 99%; pest or weed control at 280 g/ha ([6]; 168 h, 7 DAA): 27.5%; pest or weed control at 560 g/ha ([6]; 168 h, 7 DAA): 30%; pest or weed control at 280 g/ha ([6]; 336 h, 14 DAA): 22.5%; pest or weed control at 560 g/ha ([6]; 336 h, 14 DAA): 27.5%; pest or weed control at 280 g/ha ([6]; 504 h, 21 DAA): 17.5%; pest or weed control at 560 g/ha ([6]; 504 h, 21 DAA): 30%; pest or weed control at 280 g/ha ([7]; 168 h, 7 DAA): 70%; pest or weed control at 560 g/ha ([7]; 168 h, 7 DAA): 80%; pest or weed control at 280 g/ha ([7]; 336 h, 14 DAA): 62.5%; pest or weed control at 560 g/ha ([7]; 336 h, 14 DAA): 67.5%; pest or weed control at 280 g/ha ([7]; 504 h, 21 DAA): 87.5%; pest or weed control at 560 g/ha ([7]; 504 h, 21 DAA): 82.5%"
C/C(=N\OC(=O)COc1ccc(Cl)cc1Cl)c1cccnc1 [Compound A26],65,94,85,90,67.5,92.5,72,80.3,85.3,93.4,90.2,97.5,72.5,80,97.5,95,87.5,95,80,82.5,"TGA Data (rate of weight loss, volatility) [3, 8]: 1.599* μg/min; pest or weed control at 280 g/ha ([5]; 336 h, 14 DAA): 99%; pest or weed control at 560 g/ha ([5]; 336 h, 14 DAA): 99.5%; pest or weed control at 280 g/ha ([5]; 504 h, 21 DAA): 100%; pest or weed control at 560 g/ha ([5]; 504 h, 21 DAA): 100%; pest or weed control at 280 g/ha ([6]; 168 h, 7 DAA): 62.5%; pest or weed control at 560 g/ha ([6]; 168 h, 7 DAA): 67.5%; pest or weed control at 280 g/ha ([6]; 336 h, 14 DAA): 72.5%; pest or weed control at 560 g/ha ([6]; 336 h, 14 DAA): 92.5%; pest or weed control at 280 g/ha ([6]; 504 h, 21 DAA): 96%; pest or weed control at 560 g/ha ([6]; 504 h, 21 DAA): 100%; pest or weed control at 280 g/ha ([7]; 168 h, 7 DAA): 80%; pest or weed control at 560 g/ha ([7]; 168 h, 7 DAA): 77.5%; pest or weed control at 280 g/ha ([7]; 336 h, 14 DAA): 72.5%; pest or weed control at 560 g/ha ([7]; 336 h, 14 DAA): 90%; pest or weed control at 280 g/ha ([7]; 504 h, 21 DAA): 100%; pest or weed control at 560 g/ha ([7]; 504 h, 21 DAA): 100%"
C/C(=N\OC(=O)COc1ccc(Cl)cc1Cl)c1ccncc1 [Compound A27],75,85,90,96,62.5,77.5,75.5,85,87.6,94.3,90.4,95,77.5,85,98,94.5,98.5,100,85,82.5,"TGA Data (rate of weight loss, volatility) [3, 8]: 1.27* μg/min; pest or weed control at 280 g/ha ([5]; 336 h, 14 DAA): 100%; pest or weed control at 560 g/ha ([5]; 336 h, 14 DAA): 100%; pest or weed control at 280 g/ha ([5]; 504 h, 21 DAA): 98.5%; pest or weed control at 560 g/ha ([5]; 504 h, 21 DAA): 97.5%; pest or weed control at 280 g/ha ([6]; 168 h, 7 DAA): 60%; pest or weed control at 560 g/ha ([6]; 168 h, 7 DAA): 82.5%; pest or weed control at 280 g/ha ([6]; 336 h, 14 DAA): 75%; pest or weed control at 560 g/ha ([6]; 336 h, 14 DAA): 98.5%; pest or weed control at 280 g/ha ([6]; 504 h, 21 DAA): 92.5%; pest or weed control at 560 g/ha ([6]; 504 h, 21 DAA): 100%; pest or weed control at 280 g/ha ([7]; 168 h, 7 DAA): 80%; pest or weed control at 560 g/ha ([7]; 168 h, 7 DAA): 90%; pest or weed control at 280 g/ha ([7]; 336 h, 14 DAA): 75%; pest or weed control at 560 g/ha ([7]; 336 h, 14 DAA): 82.5%; pest or weed control at 280 g/ha ([7]; 504 h, 21 DAA): 100%; pest or weed control at 560 g/ha ([7]; 504 h, 21 DAA): 100%"

# Source: patent publication US20260042731A1, “(2,4-DICHLOROPHENOXY)ACETIC ACID ANALOGS” (CORTEVA AGRISCIENCE LLC, priority 2022, published 2026)
